Values quoted from earlier work, collected in article PMC7504770, “Mechanistic Insights into the Chaperoning of Human Lysosomal-Galactosidase Activity: Highly Functionalized Aminocyclopentanes and C-5a-Substituted Derivatives of 4-epi-Isofagomine” (Molecules, 2020).

Tests used:
[1] = target: T1, β-glucosidase/β-galactosidase from Agrobacterium sp. (Abg, GH1) (Agrobacterium sp., UniProt P12614); details: read-out: Ki Abg (β-Glc/Gal) (GH1); cited from earlier work
T1 sequence (P12614 1-459): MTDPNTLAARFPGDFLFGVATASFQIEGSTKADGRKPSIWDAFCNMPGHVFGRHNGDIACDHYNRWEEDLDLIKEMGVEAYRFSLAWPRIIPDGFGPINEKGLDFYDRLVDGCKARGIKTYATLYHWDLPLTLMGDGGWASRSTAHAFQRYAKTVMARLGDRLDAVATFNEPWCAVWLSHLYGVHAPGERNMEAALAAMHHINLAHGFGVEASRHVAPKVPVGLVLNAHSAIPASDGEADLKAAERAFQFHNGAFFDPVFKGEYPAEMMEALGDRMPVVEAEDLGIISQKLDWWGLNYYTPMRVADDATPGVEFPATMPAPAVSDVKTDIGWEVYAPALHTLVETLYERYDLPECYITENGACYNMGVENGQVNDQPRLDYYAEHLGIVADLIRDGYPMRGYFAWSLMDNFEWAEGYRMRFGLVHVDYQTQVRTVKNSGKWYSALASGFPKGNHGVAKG

[2] = target: T2, Fabrazyme = commercial recombinant lysosomal α-galactosidase (GH27) (Homo sapiens, UniProt P06280); details: read-out: Ki Fabrazyme (α-Gal) (GH27); cited from earlier work
T2 construct: purchased
T2 sequence (P06280 32-429): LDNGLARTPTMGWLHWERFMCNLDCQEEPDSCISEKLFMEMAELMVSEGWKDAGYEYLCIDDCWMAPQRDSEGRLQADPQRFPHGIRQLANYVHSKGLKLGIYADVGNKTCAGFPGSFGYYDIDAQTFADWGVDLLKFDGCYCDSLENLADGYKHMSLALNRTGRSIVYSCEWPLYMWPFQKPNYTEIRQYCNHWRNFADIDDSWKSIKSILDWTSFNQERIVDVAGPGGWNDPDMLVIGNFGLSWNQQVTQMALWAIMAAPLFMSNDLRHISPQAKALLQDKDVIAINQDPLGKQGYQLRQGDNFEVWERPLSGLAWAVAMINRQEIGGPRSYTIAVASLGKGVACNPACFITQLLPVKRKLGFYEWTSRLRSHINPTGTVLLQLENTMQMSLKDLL

[3] = target: α-glucosidase from S. cerevisiae (GH13); details: read-out: Ki S. cer. (α-Glc) (GH13); cited from earlier work
[4] = target: T3, recombinant human lysosomal β-glucocerebrosidase (GCase, GH30) (Homo sapiens, UniProt P04062); details: read-out: Ki GCase (β-Glc) (GH30); cited from earlier work
T3 sequence (P04062 40-536): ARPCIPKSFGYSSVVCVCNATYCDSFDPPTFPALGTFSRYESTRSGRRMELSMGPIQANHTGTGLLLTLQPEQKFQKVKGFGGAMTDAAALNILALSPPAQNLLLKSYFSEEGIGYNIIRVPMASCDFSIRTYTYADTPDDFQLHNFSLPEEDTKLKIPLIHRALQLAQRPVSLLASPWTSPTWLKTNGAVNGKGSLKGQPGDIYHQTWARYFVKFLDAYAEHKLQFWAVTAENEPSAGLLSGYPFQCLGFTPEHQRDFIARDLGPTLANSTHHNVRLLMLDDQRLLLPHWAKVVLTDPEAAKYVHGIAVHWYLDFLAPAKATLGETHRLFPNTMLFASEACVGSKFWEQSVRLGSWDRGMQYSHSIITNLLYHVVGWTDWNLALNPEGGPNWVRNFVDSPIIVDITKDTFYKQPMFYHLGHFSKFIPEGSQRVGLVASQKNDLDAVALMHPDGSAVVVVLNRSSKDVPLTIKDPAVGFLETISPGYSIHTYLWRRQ

[5] = target: T4, human lysosomal acid β-galactosidase (GH35) (Homo sapiens, UniProt P16278); details: read-out: β-Gal human lys. (GH35); cited from earlier work
T4 construct: Activity was measured in normal fibroblasts; endogenous in cells; host or cells: normal human skin fibroblasts (homogenate)
T4 sequence (P16278 29-677): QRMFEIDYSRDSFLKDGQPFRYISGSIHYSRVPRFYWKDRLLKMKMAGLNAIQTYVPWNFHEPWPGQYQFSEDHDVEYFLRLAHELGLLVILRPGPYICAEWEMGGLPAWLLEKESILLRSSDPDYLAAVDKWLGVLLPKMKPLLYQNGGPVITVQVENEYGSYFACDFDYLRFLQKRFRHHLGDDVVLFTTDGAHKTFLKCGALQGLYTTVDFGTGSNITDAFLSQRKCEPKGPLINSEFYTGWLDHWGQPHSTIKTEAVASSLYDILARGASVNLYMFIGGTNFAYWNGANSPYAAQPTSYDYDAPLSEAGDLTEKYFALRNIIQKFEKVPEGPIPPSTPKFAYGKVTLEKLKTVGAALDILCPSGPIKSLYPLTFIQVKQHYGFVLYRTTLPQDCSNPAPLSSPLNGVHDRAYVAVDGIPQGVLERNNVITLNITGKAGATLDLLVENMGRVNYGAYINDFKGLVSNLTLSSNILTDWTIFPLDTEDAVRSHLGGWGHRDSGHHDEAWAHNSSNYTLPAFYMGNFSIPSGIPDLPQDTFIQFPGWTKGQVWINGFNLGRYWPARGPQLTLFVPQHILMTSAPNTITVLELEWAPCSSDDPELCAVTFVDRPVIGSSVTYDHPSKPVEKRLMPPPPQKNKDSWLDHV

Row | SMILES | Ki [1] [µM] | Ki [2] [µM] | Ki [3] [µM] | Ki [4] [µM] | IC50 [5] [µM]
1 | CN(C)c1cccc2c(S(=O)(=O)NCCCCCC[C@@H]3NC[C@@H](O)[C@@H](O)[C@H]3CO)cccc12 [Compound 14] | 0.0175 | > 1000 | > 1000 | 1.2 | 0.38
2 | CN(C)c1cccc2c(S(=O)(=O)NCCCCCCN[C@H]3[C@H](O)[C@@H](O)[C@@H](O)[C@H]3CO)cccc12 [Compound 17] | 0.0012 | 238 | > 1000 | 0.0193 | 0.4
